Experimental data published in patent publication US8637683B2, “Macrocyclic lactone derivatives for the treatment of cancer” (Piramal Enterprises Limited, priority 2009, dated 2014).
Values after ≈ are worked out from the molar mass of the structure shown.

Experiments:
Assay type in all cases: cell-based, human
[1] = tested on: BXF 1218L; experiment: Monolayer assay (modified propidium iodide), BXF 1218L; conditions: Bladder, 4 days of treatment
Text: (§1) Oncotest GmbH, Germany's proprietary tumor cell line panel comprises 40 cell lines. These cell lines were derived from 15 different tumor histotypes, each represented by 1 to 6 different cell lines. Cell lines were established from cancer of the bladder (3), colon (4), head and neck (1), lung (6), breast (3), pancreas (3), prostate (4), ovary (2), kidney (3), liver (1), stomach (1) and the uteri body (1), as well as from melanoma (3), sarcoma (2) and pleuramesothelioma (3). Out of these 40 cell lines, 24 cell lines were established at Oncotest, from patient-derived tumor xenografts. […]
(§2) Stock solutions of the test compounds (330 μg/mL in DMSO) were prepared and stored in small aliquots (200 μL) at −20° C. […] Each concentration was evaluated in triplicate. […]
(§3) Cells were plated in 96-well flat-bottom microtiter plates at a cell density of 4,000 to 10,000 cells/well. […] To measure the viable cell number, the remaining adherent cells were killed and permeabilized by repeated freezing and thawing and PI fluorescence was measured using the Cytofluor 4000 microplate reader (excitation λ=530 nm, emission λ=620 nm), which was a measure for the number of cells which survived treatment. […] IC-values were calculated based on the principle of linear two-point curve fit. […]

[2] = tested on: BXF 1352L; experiment: Monolayer assay (modified propidium iodide), BXF 1352L; conditions: Bladder, 4 days of treatment
Text: as §1, §2, §3

[3] = tested on: CXF 269L; experiment: Monolayer assay (modified propidium iodide), CXF 269L; conditions: Colon, 4 days of treatment
Text: (§4) Oncotest GmbH, Germany's proprietary tumor cell line panel comprises 40 cell lines. These cell lines were derived from 15 different tumor histotypes, each represented by 1 to 6 different cell lines. Cell lines were established from cancer of the bladder (3), colon (4), head and neck (1), lung (6), breast (3), pancreas (3), prostate (4), ovary (2), kidney (3), liver (1), stomach (1) and the uteri body (1), as well as from melanoma (3), sarcoma (2) and pleuramesothelioma (3). Out of these 40 cell lines, 24 cell lines were established at Oncotest, from patient-derived tumor xenografts. The other 16 cell lines were either provided by the NCI (Bethesda; MD, USA) or were purchased from ATCC (Rockville, Md., USA) or DSMZ (Braunschweig, Germany).
(§5) Cell lines were routinely passaged once or twice weekly and maintained in culture for upto 20 passages. All cells were grown at 37° C. in a humidified atmosphere with 5% CO2 in RPMI 1640 medium supplemented with 10% (v/v) fetal calf serum (FCS) and 0.1 mg/mL gentamicin (medium and all other components from PAA, Cölbe, Germany). […]
as §2
as §3, with “treatment. Pharmacological effects on cell proliferation and survival were expressed as Test/Control×100 (% T/C) values, with T and C representing the fluorescence read-outs for wells with and without test compound, respectively, i.e. T/C represents the ratio of viable cell numbers following incubation of cell line with/without test compound.” for “treatment.”

[4] = tested on: LXF 1121L; experiment: Monolayer assay (modified propidium iodide), LXF 1121L; conditions: Lung, 4 days of treatment
Text: as §1, §2, §3

[5] = tested on: LXF 289L; experiment: Monolayer assay (modified propidium iodide), LXF 289L; conditions: Lung, 4 days of treatment
Text: as §1, §2, §3

[6] = tested on: LXF 629L; experiment: Monolayer assay (modified propidium iodide), LXF 629L; conditions: Lung, 4 days of treatment
Text: as §1, §2, §3

[7] = tested on: MDA 231; experiment: Monolayer assay (modified propidium iodide), MDA 231; conditions: MDA 231, Mammary, 4 days of treatment
Text: as §4, §5, §2
as §3, with “treatment. Pharmacological effects on cell proliferation and survival were expressed as Test/Control×100 (% T/C) values, with T and C representing the fluorescence read-outs for wells with and without test compound, respectively, i.e. T/C represents the ratio of viable cell numbers following incubation of cell line with/without test compound.” for “treatment.”

[8] = tested on: MEXF 1341L; experiment: Monolayer assay (modified propidium iodide), MEXF 1341L; conditions: Melanoma, 4 days of treatment
Text: as §1, §2, §3

[9] = tested on: MEXF 276L; experiment: Monolayer assay (modified propidium iodide), MEXF 276L; conditions: Melanoma, 4 days of treatment
Text: as §1, §2, §3

[10] = tested on: MEXF 462NL; experiment: Monolayer assay (modified propidium iodide), MEXF 462NL; conditions: Melanoma, 4 days of treatment
Text: as §1, §2, §3

[11] = tested on: OVCAR3; experiment: Monolayer assay (modified propidium iodide), OVCAR3; conditions: OVCAR3, Ovarian, 4 days of treatment
Text: as §1, §2, §3

[12] = tested on: PAXF 1657L; experiment: Monolayer assay (modified propidium iodide), PAXF 1657L; conditions: Pancreas, 4 days of treatment
Text: as §1, §2, §3

[13] = tested on: 22RV1; experiment: Monolayer assay (modified propidium iodide), 22RV1; conditions: 22RV1, Prostate, 4 days of treatment
Text: as §1, §2, §3

[14] = tested on: RXF 393NL; experiment: Monolayer assay (modified propidium iodide), RXF 393NL; conditions: Renal, 4 days of treatment
Text: as §1, §2, §3

[15] = tested on: SACS2; experiment: Monolayer assay (modified propidium iodide), SACS2; conditions: SACS2, Sarcoma, 4 days of treatment
Text: as §1, §2, §3

[16] = tested on: TE671; experiment: Monolayer assay (modified propidium iodide), TE671; conditions: TE671, Sarcoma, 4 days of treatment
Text: as §1, §2, §3

[17] = tested on: UXF 1138L; experiment: Monolayer assay (modified propidium iodide), UXF 1138L; conditions: Uterus, 4 days of treatment
Text: as §1, §2, §3

C/C=C/C(O)C(C)/C=C/C(=N\O)C(C)C(O)C(C)C1OC(=O)/C(OC)=C/C(C)=C/C(C)C(O)C(CC)C(O)C(C)C/C(C)=C/C=C/C1OC (stereo not shown) [Example 7, (3Z,5E,13E,15E)-18-((5Z,6E,10E)-3,9-Dihydroxy-5-(hydroxymino)-4,8-dimethyldodeca-6,10-dien-2-yl)-9-ethyl-8,10-dihydroxy-3,17-dimethoxy-5,7,11,13-tetramethyl oxacyclooctadeca-3,5,13,15-tetraen-2-one]
IC70 [1]: 46.0 ng/mL (≈ 66.7 nM)
IC50 ([1]; Homo sapiens, 96 h): 4 ng/mL (≈ 5.8 nM)
IC70 [2]: 2.0 ng/mL (≈ 2.9 nM)
IC50 ([2]; Homo sapiens, 96 h): 0.2 ng/mL (≈ 0.29 nM)
IC70 [3]: 0.2 ng/mL (≈ 0.29 nM)
IC50 ([3]; Homo sapiens, 96 h): < 0.1 ng/mL
IC50 ([4]; Homo sapiens, 96 h): 1 ng/mL (≈ 1.45 nM)
IC70 [4]: 5.0 ng/mL (≈ 7.25 nM)
IC50 ([5]; Homo sapiens, 96 h): 6 ng/mL (≈ 8.7 nM)
IC70 [5]: 68.0 ng/mL (≈ 98.6 nM)
IC50 ([6]; Homo sapiens, 96 h): 0.1 ng/mL (≈ 0.145 nM)
IC70 [6]: 1.0 ng/mL (≈ 1.45 nM)
IC50 ([7]; Homo sapiens, MDA-MB-231, 96 h): < 0.1 ng/mL
IC70 [7]: <0.1 ng/mL
IC50 ([8]; Homo sapiens, 96 h): 0.2 ng/mL (≈ 0.29 nM)
IC70 [8]: 2.0 ng/mL (≈ 2.9 nM)
IC50 ([9]; Homo sapiens, MEXF276L, 96 h): 1 ng/mL (≈ 1.45 nM)
IC70 [9]: 251.0 ng/mL (≈ 364 nM)
IC50 ([10]; Homo sapiens, 96 h): 3 ng/mL (≈ 4.35 nM)
IC70 [10]: 6.0 ng/mL (≈ 8.7 nM)
IC50 ([11]; Homo sapiens, OVCAR-3, 96 h): 0.4 ng/mL (≈ 0.58 nM)
IC70 [11]: >1000 ng/mL
IC50 ([12]; Homo sapiens, 96 h): 8 ng/mL (≈ 11.6 nM)
IC70 [12]: >1000 ng/mL
IC70 [13]: 9.0 ng/mL (≈ 13 nM)
IC50 ([13]; Homo sapiens, 96 h): 4 ng/mL (≈ 5.8 nM)
IC50 ([14]; Homo sapiens, 96 h): 7 ng/mL (≈ 10.1 nM)
IC70 [14]: 1000 ng/mL (≈ 1450 nM)
IC50 ([15]; Homo sapiens, 96 h): 5 ng/mL (≈ 7.25 nM)
IC70 [15]: >1000 ng/mL
IC50 ([16]; Homo sapiens, TE-671, 96 h): 2 ng/mL (≈ 2.9 nM)
IC70 [16]: 5.0 ng/mL (≈ 7.25 nM)
IC50 ([17]; Homo sapiens, 96 h): 5 ng/mL (≈ 7.25 nM)
IC70 [17]: 11.0 ng/mL (≈ 15.9 nM)
